Marks after values point to notes of the source that are not given here.
Assays:
[1] = target: T1, DYRK1A (Homo sapiens, UniProt Q13627); assay: DYRK1A in vitro kinase assay; assay type: biochemical; conditions: recombinant human DYRK1A, 100 μM ATP
T1 construct: purchased Upstate
Excerpt: Dual specificity tyrosine phosphorylation regulated kinase 1A (DYRK1A) has been proposed, amongst other functions, to play a role in the regulation of glycogen metabolism in a way similar to GSK3. Some of the example compounds of the present invention were screened against recombinant human DYRK1A in vitro and the determined IC50 values are shown in Table 9. According to our current knowledge inhibition of DYRK1A will have additional positive effect on stimulation of glycogen synthase.
A 10-point titration was set up to determine the IC50 values of selected example compounds against DYRK1A. Assays were performed using 96-well microtiter plates and a final volume of 25 μL/well. Each assay contained 2.3 milliunits of DYRK1A (Upstate), 50 μM Woodtide peptide ([…], Upstate), 20 mM Tris HCl pH 8.0, 10 mM DTT, 5 mM EGTA, 1 mM NaVO3, 31 mM β-glycerophosphate, 15 mM MgCl2 supplemented with 100 μM ATP and 0.5 μCi of [γ-^32P] ATP plus or minus inhibitor in 2% DMSO. Assays were carried out for 60 minutes at 30° C. before stopping the reaction by the addition of an equal volume of 75 mM aqueous phosphoric acid. Samples were then spotted onto a p81 filterplate (Whatman) and a vacuum applied. Wells were washed 3 times with 200 μL of dilute aqueous phosphoric acid before the addition of 50 μL Microscint 40 per well. Incorporation of radioactivity was determined on a Topcount microplate scintillation counter (Packard).

[2] = target: T2, GSK3β (Homo sapiens, UniProt P49841); assay: GSK3β in vitro kinase assay; assay type: biochemical; conditions: recombinant human GSK3β, 100 μM ATP
T2 construct: purchased New England Biolabs
Outline: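 Radiometric filter-binding assay with GSK3β (1.5 units), 200 μM CREB phosphopeptide, 100 μM ATP plus [γ-32P]ATP, in 20 mM Tris HCl pH7.5, 5 mM DTT, 15 mM MgCl2, 2% DMSO; 30 min at 30° C, stopped with phosphoric acid. 32P incorporation counted by scintillation; IC50 from 10-point titration.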

[3] = target: CDK2/cyclin E (Homo sapiens, UniProt P24941); assay: Kinase assay CDK2/cyclin E; assay type: biochemical; conditions: Ki calculated (Cheng-Prusoff) from experimentally determined IC50 and Km,ATP; read-out: Kinase Inhibition Ki CDK2 - cyclin E
Outline: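 Radiometric assays measured transfer of radioactive phosphate from ATP onto polypeptide substrates, using 2-4 μg recombinant active enzyme in buffer typically containing 25 mM β-glycerophosphate, 20 mM MOPS, 5 mM EGTA, 1 mM DTT and 1 mM Na3VO3 at pH 7.4. Reactions were stopped on ice, filtered on P81 or GF/C plates and washed with orthophosphoric acid. Incorporated radioactivity was scintillation-counted.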

[4] = Blood levels of test compounds in ZDF fa/fa rats; assay type: in vivo, rat; conditions: 30 mg/kg per os twice
Description: (§1) The ability of example compounds of the present invention to improve glucose metabolism was tested in 12-13 week old male ZDF fa/fa rats. The test animals (10-15 mmol/L fasting glucose level) were dosed twice at 30 mg/kg and the glucose challenge was given at time 0. […] Most of these blood levels were below the EC50 values determined in cellular assays.
(§2) 12-13 weeks old male ZDF fa/fa rats were used to study the effect of example compounds on oral glucose tolerance. […] Body weight was recorded three times per week. Test compounds were dissolve in a formulation of 10% DMSO, 5% Tween, 5% Span 20, 30% PEG 400 and 50% water (v/v) to provide final solutions at 5 mg/mL concentration. Each experimental group contained 7 animals. After an 16 h overnight fast the test compounds were administered at 30 mg/kg per os twice (at −270 min and −30 min) before the oral glucose tolerance test was commenced (2 g glucose/kg per os as a 40% solution introduced via feeding tube). A control group was dosed in a similar manner with the vehicle only. Blood sampling for blood glucose measurement (20 μL blood) was performed at −270, 0, 15, 30, 60, 90, 120 and 180 min. Mixed venous blood was collected from the tail vein into 20-μL glass capillaries, which were placed in a standard tube filled with 1 mL solution for hemolysis. Glucose levels were measured using the glucose oxidase procedure (Super G Glukosemessgeraet; Dr Mueller Geraetebau, Freital, Germany). In addition, 50 μL blood samples were taken at 30 and 60 min after the glucose dose, placed in heparinized tubes, which were then frozen immediately in liquid nitrogen. The bioanalytical method used employed isocratic elution liquid chromatography—tandem mass spectrometry in electrospray positive ion multiple reaction monitoring mode.

[5] = Oral glucose tolerance in male ZDF fa/fa rats; assay type: in vivo, rat
Description: as §1, §2

[6] = target: CDK7/cyclin H (Homo sapiens, UniProt P50613); assay: Kinase assay CDK7/cyclin H; assay type: biochemical; conditions: Ki calculated (Cheng-Prusoff) from experimentally determined IC50 and Km,ATP; read-out: Kinase Inhibition Ki CDK7 - cyclin H
Outline: (§3)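 Radiometric filter assays used recombinant kinases or complexes (2-4 μg) with appropriate polypeptide substrates in pH 7.4 β-glycerophosphate/MOPS buffer. Reactions were started with 15 mM MgCl2 and 100 μM ATP containing [γ-32P]-ATP and run at 30° C. Phosphate incorporated into substrate was counted by scintillation after washing.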

[7] = target: CDK9/cyclin T1 (Homo sapiens, UniProt P50750); assay: Kinase assay CDK9/cyclin T1; assay type: biochemical; conditions: Ki calculated (Cheng-Prusoff) from experimentally determined IC50 and Km,ATP; read-out: Kinase Inhibition Ki CDK9 - cyclin T1
Outline: as §3

[8] = target: T3, GSK3α (Homo sapiens, UniProt P49840); assay: GSK3α in vitro kinase assay; assay type: biochemical; conditions: recombinant human GSK3α, 100 μM ATP
T3 construct: purchased Upstate
Description: Both isoforms of GSK3 (α and β) are involved in the regulation of glycogen synthase activity—key enzyme in the glycogen metabolism. The inhibitory potency of example compounds was determined using in vitro kinase assays with recombinant human GSK3-α and -β; the IC50 values determined are presented in Table 9.
A 10-point titration was set up to determine the IC50 values of selected example compounds against GSK3β. Assays were performed using 96-well microtiter plates with a final volume of 25 μL per well. Each assay contained 1.5 units of GSK3β(New England Biolabs), 200 μM CREB phosphopeptide ([…]pSYR, Alta Biosciences), 20 mM Tris HCl pH7.5, 5 mM DTT, 15 mM MgCl2 supplemented with 100 μM ATP and 0.5 μCi of [γ-^32P] ATP plus or minus inhibitor in 2% DMSO. Assays were carried out for 30 minutes at 30° C. before stopping the reaction by the addition of an equal volume of 75 mM aqueous phosphoric acid. Samples were then spotted onto a p81 filterplate (Whatman) and a vacuum was applied. Wells were washed 3 times with 200 μL of dilute aqueous phosphoric acid before the addition of 50 μL Microscint 40 per well. Incorporation of radioactivity was determined on a Topcount microplate scintillation counter (Packard).
GSK3α (Upstate) was assayed exactly as described above except that 1 ng of enzyme was added per assay point.

[9] = tested on: PEPCK gene expression; assay: PEPCK gene expression assay - qPCR in HEPG2 cells; assay type: cell-based; conditions: HEPG2; 100 nM + Dex/cAMP
Description: PEPCK gene expression was studied in HEPG2 (hepatocarcinoma) cells, seeded in 6-well plate at […] per well. The cells were serum-starved for 20 hours before treatment with dexamethasone/cAMP (stimulator of PEPCK gene expression) in the presence or absence of insulin or GSK3 inhibitor example compounds. After 3 hours treatment the cells were harvested, lysed and RNA extracted using mini RNeasy spin columns (Quiagen). The primer set COD2063/COD2064 (350 bp) was used for the PEPCK gene. The one step RT-PCR was carried out using the Lightcycler-RNA Master SYBR Green 1 Kit. The qPCR analysis calculates the number of the PCR cycles required for the PCR product amplification to reach logarithmic phase. QPCR for a housekeeping gene—28S—was used for normalisation. PEPCK is a key enzyme in gluconeogenesis in the liver and it is known to be negatively regulated by insulin via inhibition of GSK3. The effect of example compounds on PEPCK gene expression was studied in HEPG2 cells treated with dexamethasone/cAMP (a positive regulator PEPCK gene expression) in the presence or absence of insulin or GSK3 inhibitors. Example compound inhibitors of GSK3 were efficient in the abolishment of dexamethasone/cAMP induced stimulation of PEPCK gene expression in HEPG2 cells.

[10] = ZDF fa/fa rats, oral glucose tolerance, 30 mg/kg per os twice (−270 and −30 min)
[11] = male ZDF fa/fa rats, 30 mg/kg per os twice, oral glucose tolerance test

Chain of CDK9/cyclin T1 (P50750 whole entry, species assumed): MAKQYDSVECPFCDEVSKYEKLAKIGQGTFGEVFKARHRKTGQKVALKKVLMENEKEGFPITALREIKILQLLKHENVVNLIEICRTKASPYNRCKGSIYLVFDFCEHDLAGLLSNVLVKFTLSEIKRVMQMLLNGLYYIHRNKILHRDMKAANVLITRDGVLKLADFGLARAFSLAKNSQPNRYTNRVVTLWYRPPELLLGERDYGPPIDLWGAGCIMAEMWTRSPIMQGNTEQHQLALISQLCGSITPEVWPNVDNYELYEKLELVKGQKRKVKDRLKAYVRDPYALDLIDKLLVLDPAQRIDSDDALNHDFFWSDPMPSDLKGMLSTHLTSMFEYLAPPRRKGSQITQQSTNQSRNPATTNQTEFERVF
Chain of CDK9/cyclin T1 (O60563 whole entry partner, species assumed): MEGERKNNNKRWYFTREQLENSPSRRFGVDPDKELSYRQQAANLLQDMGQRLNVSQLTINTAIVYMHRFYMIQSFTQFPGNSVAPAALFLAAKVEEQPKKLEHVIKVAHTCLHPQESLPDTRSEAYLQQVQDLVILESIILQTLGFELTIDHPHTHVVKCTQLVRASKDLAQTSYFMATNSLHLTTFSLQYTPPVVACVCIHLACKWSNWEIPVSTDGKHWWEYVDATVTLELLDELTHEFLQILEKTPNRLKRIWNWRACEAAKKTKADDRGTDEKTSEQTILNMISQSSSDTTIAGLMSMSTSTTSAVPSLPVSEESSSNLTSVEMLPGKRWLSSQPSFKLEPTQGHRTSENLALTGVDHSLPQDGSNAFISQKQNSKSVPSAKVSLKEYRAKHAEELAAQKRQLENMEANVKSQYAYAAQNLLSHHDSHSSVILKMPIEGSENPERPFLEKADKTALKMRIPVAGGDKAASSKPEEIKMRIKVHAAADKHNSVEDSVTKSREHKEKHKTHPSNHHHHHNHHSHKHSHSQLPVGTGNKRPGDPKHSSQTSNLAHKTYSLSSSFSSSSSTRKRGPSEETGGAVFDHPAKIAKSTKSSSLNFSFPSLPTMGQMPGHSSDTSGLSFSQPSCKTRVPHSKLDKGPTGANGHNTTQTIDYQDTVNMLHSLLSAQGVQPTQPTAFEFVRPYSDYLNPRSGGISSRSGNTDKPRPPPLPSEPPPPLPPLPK
T3 sequence (P49840 whole entry): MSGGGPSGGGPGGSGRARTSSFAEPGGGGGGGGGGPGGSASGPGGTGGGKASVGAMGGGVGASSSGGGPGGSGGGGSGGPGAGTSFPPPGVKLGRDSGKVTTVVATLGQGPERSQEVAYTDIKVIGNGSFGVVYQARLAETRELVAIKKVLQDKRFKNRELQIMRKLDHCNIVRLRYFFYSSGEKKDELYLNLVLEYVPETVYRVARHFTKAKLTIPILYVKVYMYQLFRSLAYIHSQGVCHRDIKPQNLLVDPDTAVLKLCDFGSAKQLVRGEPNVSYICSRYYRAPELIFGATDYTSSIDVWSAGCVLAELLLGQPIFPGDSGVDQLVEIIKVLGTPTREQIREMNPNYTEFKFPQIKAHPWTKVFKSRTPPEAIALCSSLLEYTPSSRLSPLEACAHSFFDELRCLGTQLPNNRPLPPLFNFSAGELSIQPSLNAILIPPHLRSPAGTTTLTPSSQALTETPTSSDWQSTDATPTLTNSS
T2 sequence (P49841 whole entry): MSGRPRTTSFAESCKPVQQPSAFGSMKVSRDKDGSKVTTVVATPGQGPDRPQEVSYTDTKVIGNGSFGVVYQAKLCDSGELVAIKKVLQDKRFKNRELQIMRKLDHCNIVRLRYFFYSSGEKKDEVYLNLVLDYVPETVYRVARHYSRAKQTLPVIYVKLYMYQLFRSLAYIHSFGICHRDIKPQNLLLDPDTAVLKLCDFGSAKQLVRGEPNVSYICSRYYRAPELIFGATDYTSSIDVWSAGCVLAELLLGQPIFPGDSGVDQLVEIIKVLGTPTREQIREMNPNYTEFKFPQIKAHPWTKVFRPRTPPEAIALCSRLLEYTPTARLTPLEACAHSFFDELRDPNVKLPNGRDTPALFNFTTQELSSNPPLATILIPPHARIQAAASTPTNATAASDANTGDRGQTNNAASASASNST
Chain of CDK7/cyclin H (P50613 whole entry, species assumed): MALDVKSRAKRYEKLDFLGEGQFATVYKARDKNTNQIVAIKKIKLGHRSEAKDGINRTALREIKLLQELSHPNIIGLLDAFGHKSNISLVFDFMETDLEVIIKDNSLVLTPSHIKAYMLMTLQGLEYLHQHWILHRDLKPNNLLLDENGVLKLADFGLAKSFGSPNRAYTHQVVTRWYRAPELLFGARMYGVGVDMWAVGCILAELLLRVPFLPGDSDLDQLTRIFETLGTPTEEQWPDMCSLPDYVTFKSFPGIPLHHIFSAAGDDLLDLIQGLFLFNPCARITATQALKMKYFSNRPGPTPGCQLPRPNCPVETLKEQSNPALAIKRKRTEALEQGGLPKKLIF
Chain of CDK7/cyclin H (P51946 whole entry partner, species assumed): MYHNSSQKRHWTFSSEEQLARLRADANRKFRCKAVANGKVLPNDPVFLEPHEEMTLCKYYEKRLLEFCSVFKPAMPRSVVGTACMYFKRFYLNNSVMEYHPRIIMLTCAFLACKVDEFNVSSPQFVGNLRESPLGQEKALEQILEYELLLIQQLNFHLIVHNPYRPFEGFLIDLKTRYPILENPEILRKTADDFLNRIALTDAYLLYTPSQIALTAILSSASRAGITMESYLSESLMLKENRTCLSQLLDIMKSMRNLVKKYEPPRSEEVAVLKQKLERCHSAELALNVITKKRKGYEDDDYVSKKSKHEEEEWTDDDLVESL

Molecule | IC50 [1] [nM] | IC50 [2] [nM] | Ki [3] [nM] | oral bioavailability (blood levels at 30 and 60 min after the glucose load) ([4]; male ZDF fa/fa rats) | concentration at 30 min ([4]; male, rat, whole blood, oral, ZDF fa/fa rats, time 30 min) [ng/mL] | concentration at 60 min ([4]; male, rat, whole blood, oral, ZDF fa/fa rats, time 60 min) [ng/mL] | % Glucose Decrease AUC (−270–180 min) [5, 10] [%] | % Glucose decrease-AUC (0–180 min) [5, 10] | decreased blood glucose levels [5, 11] | glucose AUC [5, 11] | Ki [6] [nM] | Ki [7] [nM] | IC50 [8] [nM] | PEPCK gene expression, % of maximum stimulation [9] [%]
Cc1c(-c2ccnc(Nc3ccc(Cl)c(C(F)(F)F)c3)n2)sc(=O)n1C [Compound 66, 5-[2-(4-Chloro-3-trifluoromethyl-phenylamino)-pyrimidin-4-yl]-3,4-dimethyl-3H-thiazol-2-one] | 356 | 15 | 200 | some oral bioavailability | 157 | 162 | 20 | 17* % | statistically significant | moderate decrease | 2300 | 21 | 32 | –
Insulin | – | – | – | – | – | – | – | – | – | – | – | – | – | 44.09 ± 11.07
